Source: article PMC10991509, “A phase I study of ATR inhibitor gartisertib (M4344) as a single agent and in combination with carboplatin in patients with advanced solid tumours” (British Journal of Cancer, 2024)
pIC50: −log10 of the molar value.

What was measured:
[1] = biological target: T1, UGT1A1 (Rattus norvegicus, UniProt Q64550); assay: UGT1A1 inhibition in rat liver microsomes; type: in vitro ADME; conditions: value (standard error)
T1 construct: from tissue; host or cells: rat liver microsomes
T1 sequence (Q64550 30-535): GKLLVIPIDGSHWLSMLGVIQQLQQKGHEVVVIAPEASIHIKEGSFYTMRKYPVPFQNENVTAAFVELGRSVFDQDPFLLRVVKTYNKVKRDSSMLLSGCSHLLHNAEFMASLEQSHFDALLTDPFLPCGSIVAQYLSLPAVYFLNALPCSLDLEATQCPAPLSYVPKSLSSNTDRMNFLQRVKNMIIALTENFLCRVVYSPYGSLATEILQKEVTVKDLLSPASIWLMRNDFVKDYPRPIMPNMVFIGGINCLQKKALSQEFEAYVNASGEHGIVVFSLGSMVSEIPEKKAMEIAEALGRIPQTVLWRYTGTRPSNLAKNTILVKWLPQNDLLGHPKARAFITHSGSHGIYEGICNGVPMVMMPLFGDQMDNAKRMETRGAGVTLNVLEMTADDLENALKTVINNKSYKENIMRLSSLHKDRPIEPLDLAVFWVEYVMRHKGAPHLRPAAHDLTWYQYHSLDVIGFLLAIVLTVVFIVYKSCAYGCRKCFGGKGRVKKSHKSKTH

[2] = system: patients with advanced solid tumours; assay: Phase I safety and tolerability (TEAEs, DLTs, MTD/RP2D); type: in vivo
Description: This phase I, multicenter, multicohort, open-label, first-in-human study (NCT02278250) assessed the safety, tolerability, pharmacokinetics (PK) and antitumour activity of orally administered gartisertib alone or in combination with intravenous carboplatin in patients with advanced solid tumours for whom no standard therapy was available.
The primary objectives of cohorts A and A2 were to evaluate safety and tolerability and determine the maximum tolerated dose (MTD) and/or recommended phase II dose (RP2D) of escalating doses of gartisertib monotherapy. In cohort B1, the primary objective was to determine the safety and tolerability as well as the MTD and/or RP2D of escalating doses of gartisertib in combination with carboplatin. The primary endpoints for these three study cohorts were safety parameters (AEs, clinical laboratory values, vital signs, and electrocardiogram [ECG] assessment) as well as the MTD and/or RP2D. The Supplementary Materials provide further details regarding the safety analysis, including determination of MTD, as well as the definitions of dose-limiting toxicities (DLTs; Supplementary Table S1). Please note that in this study increased blood bilirubin was defined as a laboratory finding whereas hyperbilirubinemia was a clinical diagnosis based on clinical symptoms.
Gartisertib safety was determined via reporting, recording, and analysis of Baseline Medical Conditions, AEs, physical examination data including vital signs, electrocardiograms and laboratory tests. Medical history and physical examination data were collected during the study. Any potential AE was reported and comprehensively evaluated throughout the study. AE severity was assessed according to the National Cancer Institute – Common Terminology Criteria for Adverse Events (NCI–CTCAE) version 4.0 (cohorts A and B1) or 5.0 (cohorts A2 and C). Any clinical AE with a grade of 4 or 5 was considered to be a serious AE (SAE). A laboratory AE of grade 4 was considered serious if it met certain SAE criteria. […] Important medical events that may not result in death, be life-threatening, or require hospitalization were considered to be SAEs when, based upon appropriate medical judgment, they may jeopardize the patient or may require medical or surgical intervention to prevent one of the outcomes listed above.
Patients were monitored throughout treatment cycles for DLTs. DLTs were defined using the NCI CTCAE (cohorts A and B1: version 4.0; cohort A2: version 5.0) and were defined as being related or possibly related to treatment.
Cohorts A, A2, and B1: With respect to determination of the MTD, the next dose level to be investigated was decided at a Dose Escalation Meeting and was based on the available safety data from the previous cohort. The MTD of gartisertib was primarily determined by DLTs that occurred up to and including the end of the DLT period. Please see Table S1 for definitions of DLTs. In cohorts A and B1, the gartisertib MTD was determined according to the NCI-CTCAE version 4.0 and in cohorts A2 and […], the gartisertib MTD was defined according to the NCI-CTCAE version 5.0. If ≥2 out of up to six participants at the same dose level have a DLT, the gartisertib MTD was determined as the dose level below or at an intermediate dose level. The exact dose was determined following a discussion regarding all the relevant toxicity, including DLTs that occur in prior cohorts beyond the end of the DLT period. An RP2D was determined for each applicable cohort of the study; however, it may not be higher than the MTD.

Nc1nn2cc(F)cnc2c1C(=O)Nc1cncc(F)c1N1CCC(C(=O)N2CCN(C3COC3)CC2)CC1 [gartisertib, Gartisertib]
pIC50 [1]: < 4.30 | TEAE Constipation, Grade 3/4 ([2]; human, in vivo): 0 (0.0) n (%) | TEAE Decreased appetite, Grade 3/4 ([2]; human, in vivo): 0 (0.0) n (%) | TEAE Diarrhoea, Grade 3/4 ([2]; human, in vivo): 0 (0.0) n (%) | TEAE Disease progression, Grade 3/4 ([2]; human, in vivo): 0 (0.0) n (%) | TEAE Disease progression, any grade ([2]; human, in vivo): 0 (0.0) n (%) | TEAE Dyspnoea, Grade 3/4 ([2]; human, in vivo): 0 (0.0) n (%) | TEAE Headache, Grade 3/4 ([2]; human, in vivo): 0 (0.0) n (%) | TEAE Hypokalaemia, Grade 3/4 ([2]; human, in vivo): 0 (0.0) n (%) | TEAE Hypokalaemia, any grade ([2]; human, in vivo): 0 (0.0) n (%) | TEAE Hypomagnesaemia, Grade 3/4 ([2]; human, in vivo): 0 (0.0) n (%) | TEAE Hypomagnesaemia, any grade ([2]; human, in vivo): 0 (0.0) n (%) | TEAE Jaundice, Grade 3/4 ([2]; human, in vivo): 0 (0.0) n (%) | TEAE Jaundice, any grade ([2]; human, in vivo): 0 (0.0) n (%) | TEAE Neutropenia, Grade 3/4 ([2]; human, in vivo): 0 (0.0) n (%) | TEAE Peripheral oedema, Grade 3/4 ([2]; human, in vivo): 0 (0.0) n (%) | TEAE Peripheral oedema, any grade ([2]; human, in vivo): 0 (0.0) n (%) | TEAE Thrombocytopenia, Grade 3/4 ([2]; human, in vivo): 0 (0.0) n (%) | TEAE Thrombocytopenia, any grade ([2]; human, in vivo): 0 (0.0) n (%) | TEAE anaemia ([2]; human, in vivo): 61.5% | TEAE fatigue ([2]; human, in vivo): 47.6% | TEAE increased blood bilirubin ([2]; human, in vivo): 61.5% | TEAE nausea ([2]; human, in vivo): 66.7% | abdominal pain leading to gartisertib discontinuation ([2]; human, in vivo): 7.7% | hepatic failure leading to gartisertib discontinuation ([2]; human, in vivo): 7.7% | increased ALT leading to gartisertib discontinuation ([2]; human, in vivo): 7.7% | increased blood bilirubin leading to gartisertib discontinuation ([2]; human, in vivo): 11.9% | nausea leading to gartisertib discontinuation ([2]; human, in vivo): 7.1% | patients experiencing a gartisertib-related TEAE ([2]; human, in vivo): ≥ 92.3% | patients who experienced at least one serious TEAE ([2]; human, in vivo): ≥ 50% | patients with grade 3 or 4 changes in laboratory parameters ([2]; human, in vivo): ≤ 20% | recommended phase II dose (RP2D) ([2]; human, in vivo): 250 mg QD | serious TEAE related to gartisertib ([2]; human, in vivo): 19.0-37.5% | DLTs at QD doses subsequently investigated ([2]; in vivo): no additional DLTs observed | changes in ECG parameters ([2]; in vivo): no clinically relevant changes | changes in vital signs ([2]; in vivo): no clinically relevant changes | gartisertib dose reduction due to a treatment-related TEAE ([2]; in vivo): eight | patients with ≥1 DLT ([2]; in vivo): five | tolerability of gartisertib 1200 mg twice weekly ([2]; in vivo): not tolerated | deaths considered related to gartisertib or carboplatin ([2]; six deaths reported across all cohorts): none
